Measurements published in patent US20240124439A1, “Pyrido[2,3-D]Imidazole Derivatives and Their Use As Inhibitors of ITK for the Treatment of Skin Disease” (Pfizer Inc., priority 2020, published 2024).

Tests used:
[1] = molecular target: IL-2-Inducible T-Cell Kinase (ITK) (Homo sapiens (Human), UniProt Q08881); experiment: ITK enzyme assay (IL-2-inducible T-cell kinase activity); format: biochemical; conditions: geometric mean of count n
Method: ITK activity was determined by measuring the effect of a test compound in an ITK enzyme assay.
1.0 M HEPES Buffer pH 7.5 solution was prepared as follows: 238.3 g HEPES free acid (Sigma) and 800 mL of water were combined, and the mixture was stirred until complete dissolution. The pH was adjusted to 7.5 via titration with 5N NaOH and the volume adjusted to 1000 mL. The solution was filtered and sterilized.
ITK assay buffer was prepared as follows: 50 mL of HPLC-grade water was treated with 2 mL of 1.0 M HEPES Buffer, 500 μL of 2% Gelatin (Sigma), 1.0 mL of aqueous MgCl2 solution (1.0 M), and 1.0 mL of aqueous glutathione solution (0.5 M), and the solution was mixed. The solution was brought to 99 mL in a graduated cylinder by addition of water and sterilized through a 0.2 μm filter. 0.1 mL of Brij-35™ Surfact-Amps™ Detergent Solution (10% w/v aqueous solution, ThermoFisher) and 1.0 mL of ATP (Teknova,100 mM) were added and the solution was mixed.
Preparation of 1.33× ITK enzyme solution was as follows: 49.99 mL of ITK assay buffer was treated with 4.1 μL of ITK enzyme (ITK FL (N-Flag and C-His tagged, […]) Lake Pharma, 0.25 mg/ml in a buffer containing 25 mM Tris pH 7.8, 150 mM NaCl, 10% glycerol and 2 mM TCEP) and the mixture was gently agitated. The resulting solution was stored on ice. 30 Minutes prior to use, the enzyme solution was removed from ice and equilibrated to RT by incubation in a RT water bath.
Preparation of 4× ITK substrate solution was as follows: 50 mL of ITK assay buffer was treated with 100 μL of BTK peptide (China Peptide Company, 2 mM stock solution in DMSO). The tube was capped, mixed by gently inverting the tube, and then stored on ice. 30 Minutes prior to use, the substrate solution was removed from ice and equilibrated to RT by incubation in a RT water bath.
At the time of assay, 7.5 μL of the 1.33× ITK enzyme solution was added to plate wells containing 0.1 μL of varying concentrations of test compound in DMSO. The plate was incubated 30 min at RT. The plate wells were each treated with 2.5 uL of the 4× ITK substrate solution and the plate was sealed (TopSeal™, Perkin Elmer). The plate was spun at 1000 rpm for 30 sec and then incubated for 60 min at RT. The seal was removed, and each well was treated with 10 μL of Stop/Detect Buffer (20 mM HEPES pH 7.5, 0.01% gelatin, 1 nM LANCE PT66 (Perkin Elmer), 16.5 μg/ml Surelight APC (Perkin Elmer), 10 mM EDTA, 250 mM NaCl). The plate was again covered and was spun at 1000 rpm for […]. The plate was allowed to incubate overnight at RT and in a closed carrier to reduce dehydration. The seal was removed, and the fluorescence was read with a plate reader with an excitation wavelength of […]. The concentrations and resulting effect values for the tested compound were plotted and the concentration of compound required for 50% effect (IC50) was determined with the four-parameter logistic dose response equation.

[2] = system: activated CD4+ human T-cells (IL-2); experiment: IL-2 inhibition in supernatants from activated CD4+ human T-cells (cisbio HTRF); format: cell-based; conditions: T-cell; CD3/CD28-activated CD4+ human T cells, ImmunoCult stimulation 20 to 24 hrs; geometric mean of count n
Method: IL-2 inhibition activity in supernatants from activated CD4+ human T-cells was determined by measuring the effect of a test compound on the activity using the cisbio HTRF™ technology.
Human CD4+ T cells were activated with CD3/CD28 for 3 days and expanded for an additional 4-6 days (7 to 9 days total). On day 0, frozen CD4+ T cells were thawed, treated with CD3/CD28 Dynabeads, and incubated at 37° C./5% CO2. On day 3, the beads were removed, and the cells were diluted to 5×10^5 cells/cm^2, placed in G-Rex10 flask, and incubated at 37° C./5% CO2. On day 7 to day 9 the cells were removed from the G-Rex flasks, counted and diluted back to 1×10^6 cells/ml in standard tissue culture flask.
The expanded CD4+ T-cells were centrifuged at 300×g for 10 minutes and resuspended to 0.5 million cells per ml (30,000 cells/well). 60 μl of CD4+ T cells were added per well to a 384 well plate containing 0.1 μL of varying concentrations of test compound in DMSO. The plates were incubated for 15 min at 37° C./5% CO2. 20 μl of diluted ImmunoCult™ (STEMCELL Technologies, 1:12.5 in T cell assay media) were added to all wells of the plate (1:50 final assay concentration). The plates were incubated for an additional 20 to 24 hrs at 37° C./5% CO2. The plates were centrifuged at 300×g for 10 minutes. 16 μL of supernatant was removed and combined with 4 μl of IL-2 HTRF Abs. (cisbio kit). Plates were incubated for 3 hours at RT and read with an EnVision plate reader at 665 nm and 615 nm wavelengths. The concentrations and resulting effect values for the tested compound were plotted and the concentration of compound required for 50% effect (IC50) was determined with the four-parameter logistic dose response equation.

Sequence of IL-2-Inducible T-Cell Kinase (ITK) (Q08881 whole entry): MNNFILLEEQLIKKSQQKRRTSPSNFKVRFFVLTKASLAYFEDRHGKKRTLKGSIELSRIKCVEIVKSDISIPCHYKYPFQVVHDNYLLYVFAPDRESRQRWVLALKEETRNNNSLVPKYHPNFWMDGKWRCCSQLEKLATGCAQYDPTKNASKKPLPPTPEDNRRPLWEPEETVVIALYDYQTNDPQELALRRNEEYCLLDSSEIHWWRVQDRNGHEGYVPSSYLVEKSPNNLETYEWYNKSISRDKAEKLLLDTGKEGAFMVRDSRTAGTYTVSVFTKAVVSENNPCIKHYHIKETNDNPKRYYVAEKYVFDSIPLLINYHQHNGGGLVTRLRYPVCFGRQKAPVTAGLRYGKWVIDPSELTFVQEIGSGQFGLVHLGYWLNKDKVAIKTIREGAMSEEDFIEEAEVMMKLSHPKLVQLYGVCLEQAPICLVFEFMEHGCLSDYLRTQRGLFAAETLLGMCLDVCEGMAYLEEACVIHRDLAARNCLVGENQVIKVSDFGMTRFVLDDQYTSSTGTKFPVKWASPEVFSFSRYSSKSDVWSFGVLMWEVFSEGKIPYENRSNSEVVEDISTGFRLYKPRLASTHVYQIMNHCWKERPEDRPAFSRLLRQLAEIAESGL

An IC50 [1] of 123 nM and an IC50 [2] of 294 nM were found for `CN(C(=O)C1CCOCC1)c1cnc2nc(-c3n[nH]c4c3C[C@@H]3C[C@]3(C)C4)[nH]c2c1` [Example 46, N-Methyl-N-(2-((4aS,5aR)-5a-methyl-1,4,4a,5,5a,6-hexahydrocyclopropa[f]indazol-3-yl)-1H-imidazo[4,5-b]pyridin-6-yl)tetrahydro-2H-pyran-4-carboxamide] in this work.

An IC50 [1] of 37 nM and an IC50 [2] of 108 nM were found for `CN(C(=O)C1CCCCC1)c1cnc2nc(-c3n[nH]c4c3C[C@@H]3C[C@]3(C)C4)[nH]c2c1` [Example 51, N-Methyl-N-(2-((4aS,5aR)-5a-methyl-1,4,4a,5,5a,6-hexahydrocyclopropa[f]indazol-3-yl)-1H-imidazo[4,5-b]pyridin-6-yl)cyclohexanecarboxamide] in this work.

An IC50 [1] of 51 nM and an IC50 [2] of 189 nM were found for `CN(C(=O)CC1CCOCC1)c1cnc2nc(-c3n[nH]c4c3C[C@@H]3C[C@]3(C)C4)[nH]c2c1` [Example 52, N-Methyl-N-(2-((4aS,5aR)-5a-methyl-1,4,4a,5,5a,6-hexahydrocyclopropa[f]indazol-3-yl)-1H-imidazo[4,5-b]pyridin-6-yl)-2-(tetrahydro-2H-pyran-4-yl)acetamide] in this work.

An IC50 [1] of 88 nM and an IC50 [2] of 304 nM were found for `CN(C(=O)C(C)(C)CN1CCOCC1)c1cnc2nc(-c3n[nH]c4c3C[C@@H]3C[C@]3(C)C4)[nH]c2c1` [Example 53, N,2,2-Trimethyl-N-(2-((4aS,5aR)-5a-methyl-1,4,4a,5,5a,6-hexahydrocyclopropa[f]indazol-3-yl)-1H-imidazo[4,5-b]pyridin-6-yl)-3-morpholinopropanamide] in this work.

An IC50 [1] of 20 nM and an IC50 [2] of 93 nM were found for `CN(C(=O)C1C[C@@H]2[C@H](C1)C2(F)F)c1cnc2nc(-c3n[nH]c4c3C[C@@H]3C[C@]3(C)C4)[nH]c2c1` (stereo partly drawn) [Example 55, (1R,5S)-6,6-Difluoro-N-methyl-N-(2-((4aS,5aR)-5a-methyl-1,4,4a,5,5a,6-hexahydrocyclopropa[f]indazol-3-yl)-1H-imidazo[4,5-b]pyridin-6-yl)bicyclo[3.1.0]hexane-3-carboxamide] in this work.

An IC50 [1] of 54 nM and an IC50 [2] of 611 nM were found for `CN(C(=O)CN1CCOCC1=O)c1cnc2nc(-c3n[nH]c4c3C[C@@H]3C[C@]3(C)C4)[nH]c2c1` [Example 56, N-Methyl-N-(2-((4aS,5aR)-5a-methyl-1,4,4a,5,5a,6-hexahydrocyclopropa[f]indazol-3-yl)-1H-imidazo[4,5-b]pyridin-6-yl)-2-(3-oxomorpholino)acetamide] in this work.

An IC50 [1] of 109 nM and an IC50 [2] of 370 nM were found for `CN(C(=O)C12CC(F)(C1)C2)c1cnc2nc(-c3n[nH]c4c3C[C@@H]3C[C@]3(C)C4)[nH]c2c1` [Example 59] in this work.

An IC50 [1] of 63 nM and an IC50 [2] of 182 nM were found for `CN(C(=O)C(C)(C)C1CCOCC1)c1cnc2nc(-c3n[nH]c4c3CC3C[C@]3(C)C4)[nH]c2c1` (stereo partly drawn) [Example 60, N,2-Dimethyl-N-(2-((4aS,5aR)-5a-methyl-1,4,4a,5,5a,6-hexahydrocyclopropa[f]indazol-3-yl)-1H-imidazo[4,5-b]pyridin-6-yl)-2-(tetrahydro-2H-pyran-4-yl)propenamide] in this work.

An IC50 [1] of 141 nM and an IC50 [2] of 402 nM were found for `CN(C(=O)C1(C)CCC(F)(F)CC1)c1cnc2nc(-c3n[nH]c4c3C[C@@H]3C[C@]3(C)C4)[nH]c2c1` [Example 62, 4,4-Difluoro-N,1-dimethyl-N-(2-((4aS,5aR)-5a-methyl-1,4,4a,5,5a,6-hexahydrocyclopropa[f]indazol-3-yl)-1H-imidazo[4,5-b]pyridin-6-yl)cyclohexane-1-carboxamide] in this work.

An IC50 [1] of 40 nM and an IC50 [2] of 338 nM were found for `CN(C(=O)C1(C2CCC2)CCC1)c1cnc2nc(-c3n[nH]c4c3C[C@@H]3C[C@]3(C)C4)[nH]c2c1` [Example 63, N-Methyl-N-(2-((4aS,5aR)-5a-methyl-1,4,4a,5,5a,6-hexahydrocyclopropa[f]indazol-3-yl)-1H-imidazo[4,5-b]pyridin-6-yl)-[1,1′-bi(cyclobutane)]-1-carboxamide] in this work.

An IC50 [1] of 103 nM and an IC50 [2] of 208 nM were found for `CN(C(=O)[C@@H]1CCCCO1)c1cnc2nc(-c3n[nH]c4c3C[C@@H]3C[C@]3(C)C4)[nH]c2c1` [Example 64, (S)-N-Methyl-N-(2-((4aS,5aR)-5a-methyl-1,4,4a,5,5a,6-hexahydrocyclopropa[f]indazol-3-yl)-1H-imidazo[4,5-b]pyridin-6-yl)tetrahydro-2H-pyran-2-carboxamide] in this work.

An IC50 [1] of 150 nM and an IC50 [2] of 568 nM were found for `CCC1(C(=O)N(C)c2cnc3nc(-c4n[nH]c5c4C[C@@H]4C[C@]4(C)C5)[nH]c3c2)CCOCC1` [Example 65, 4-Ethyl-N-methyl-N-(2-((4aS,5aR)-5a-methyl-1,4,4a,5,5a,6-hexahydrocyclopropa[f]indazol-3-yl)-1H-imidazo[4,5-b]pyridin-6-yl)tetrahydro-2H-pyran-4-carboxamide] in this work.

An IC50 [1] of 92 nM and an IC50 [2] of 292 nM were found for `CN(C(=O)C1(C)CC(F)(F)C1)c1cnc2nc(-c3n[nH]c4c3C[C@@H]3C[C@]3(C)C4)[nH]c2c1` [Example 66, 3,3-Difluoro-N,1-dimethyl-N-(2-((4aS,5aR)-5a-methyl-1,4,4a,5,5a,6-hexahydrocyclopropa[f]indazol-3-yl)-1H-imidazo[4,5-b]pyridin-6-yl)cyclobutane-1-carboxamide] in this work.

An IC50 [1] of 12 nM and an IC50 [2] of 59 nM were found for `CN(C(=O)[C@@H]1C[C@@H]2[C@H](C1)C2(F)F)c1cnc2nc(-c3n[nH]c4c3C[C@@H]3C[C@]3(C)C4)[nH]c2c1` [Example 67, (1R,3s,5S)-6,6-Difluoro-N-methyl-N-(2-((4aS,5aR)-5a-methyl-1,4,4a,5,5a,6-hexahydrocyclopropa[f]indazol-3-yl)-1H-imidazo[4,5-b]pyridin-6-yl)bicyclo[3.1.0]hexane-3-carboxamide] in this work.

An IC50 [1] of 107 nM and an IC50 [2] of 177 nM were found for `CN(C(=O)[C@H]1CCCCO1)c1cnc2nc(-c3n[nH]c4c3C[C@@H]3C[C@]3(C)C4)[nH]c2c1` [Example 68, (R)-N-Methyl-N-(2-((4aS,5aR)-5a-methyl-1,4,4a,5,5a,6-hexahydrocyclopropa[f]indazol-3-yl)-1H-imidazo[4,5-b]pyridin-6-yl)tetrahydro-2H-pyran-2-carboxamide] in this work.

An IC50 [1] of 292 nM and an IC50 [2] of 1160 nM were found for `CN(C(=O)[C@H]1[C@@H]2COC[C@@H]21)c1cnc2nc(-c3n[nH]c4c3C[C@@H]3C[C@]3(C)C4)[nH]c2c1` [Example 69, (1R,5S,6r)-N-Methyl-N-(2-((4aS,5aR)-5a-methyl-1,4,4a,5,5a,6-hexahydrocyclopropa[f]indazol-3-yl)-1H-imidazo[4,5-b]pyridin-6-yl)-3-oxabicyclo[3.1.0]hexane-6-carboxamide] in this work.
